Usually solubility (kinetic) stands for solubility judged after dilution from a stock solution rather than from solid.

≈ marks a conversion by molar mass, not a printed value.

For this data set the following is noted: buffer; pH 7.4; 200.0 µM.
Consider `CC1CC(C)(C)NC(=S)N1CCC(=O)N1CCc2ccccc2C1` (stereo not given), for which the kinetic solubility was determined as 38.8 µg/mL (≈ 112 µM).

Take `CCN(CC)C(=O)c1ccccc1NC(=O)c1ccccc1`: the kinetic solubility is above 44.5 µg/mL. As for `COc1cc(C2=NC(CO)(CO)CO2)cc(OC)c1OC`, the figure is above 44.6 µg/mL; as for `CCn1cc(C(=O)N2CCCCC2)c2ccccc21`, above 38.5 µg/mL. As for `Nc1ccc(S(=O)(=O)NCc2ccccn2)cc1`, the figure is above 39.5 µg/mL; as for `CCCc1c(C)nc(N2CCN(c3ccc(F)cc3)CC2)[nH]c1=O`, 1.2 µg/mL (≈ 3.63 µM); as for `Cc1cccc(C(=O)Nc2cccc3cccnc23)c1`, 2.6 µg/mL (≈ 9.91 µM). `O=C(Nc1c[nH]c(=O)[nH]c1=O)c1ccccc1Cl` showed a kinetic solubility above 39.8 µg/mL. The same measure for `Cn1c(=O)c2sccc2n(Cc2ccccc2)c1=O`: above 40.8 µg/mL; for `CC(C)c1ccc(NC(=O)COC(=O)C2CC3C=CC2C3)cc1` (stereo not given): 22.1 µg/mL (≈ 70.5 µM). The same measure for `Cc1ccc(CNC(=O)c2cc(=O)c3ccccc3o2)cc1`: 3 µg/mL (≈ 10.2 µM); for `COc1ccc(C)cc1NC(=O)Nc1ccccc1SC`: 1.3 µg/mL (≈ 4.3 µM). The same measure for `Cl.Oc1ccc(CCNc2c3ccccc3nc3ccccc23)cc1O`: 44.7 µg/mL; for `O=[N+]([O-])c1ccc(Oc2ccc(OCc3ccccc3)cc2)nc1`: below 0.3 µg/mL; for `CCN(CC(=O)NCc1ccco1)S(=O)(=O)c1ccc(F)cc1`: above 51.1 µg/mL.

As to `CC1CCC(NC(=O)COC(=O)c2ccco2)CC1` (stereo not given), the kinetic solubility was above 39.8 µg/mL. Turning to `O=C(Nc1ncc([N+](=O)[O-])s1)C1COc2ccccc2O1` (stereo not given), the solubility (kinetic) is above 46.1 µg/mL. In turn, `c1ccc(C(NCCNC(c2ccccc2)c2ccccc2)c2ccccc2)cc1` yielded a kinetic solubility of 1.7 µg/mL (≈ 4.33 µM).

The compound `CC1CCN(CC(=O)Nc2nccs2)CC1` had a kinetic solubility above 35.9 µg/mL.

`CC(c1ccccc1)C1CC(=O)N(c2ccccc2)C1=O` (stereo not given) yielded a solubility (kinetic) of 41.1 µg/mL (≈ 147 µM). As for `Cc1ncoc1C(=O)N1CCCC(C(=O)c2cccc3ccccc23)C1` (stereo not given), the figure is 50.3 µg/mL (≈ 144 µM); as for `Cc1ccc(C(C)C)c(OCC#CCN2CCCC2)c1.O=C(O)C(=O)O`, 25.7 µg/mL; as for `CSCc1ccc(C(=O)OCc2nc3ccccc3s2)o1`, 13.3 µg/mL (≈ 41.6 µM).

For the compound `COc1cccc(/C=C/C(=O)OCC(=O)NCCC2=CCCCC2)c1OC`, the solubility (kinetic) worked out at 6.9 µg/mL (≈ 18.5 µM).

The compound `O=C(Nc1ncccn1)c1ccc(Cl)c([N+](=O)[O-])c1` had a solubility (kinetic) above 41.8 µg/mL. With `O=C(NC1CCCCC1)N1CCN(c2ccc(Cl)cc2)CC1`, the solubility (kinetic) is 19.6 µg/mL (≈ 60.9 µM).

In turn, `Cc1ccc(C)c(NC(=O)C2CCCC2)c1` showed a kinetic solubility above 32.6 µg/mL.

For `CCCC(=O)Nc1ccc(-c2cn3cccnc3n2)cc1`, the solubility (kinetic) is above 42 µg/mL. The same measure for `O=S(=O)(/C=C/c1ccccc1)N1CCNCC1`: above 37.8 µg/mL; for `O=C1N/C(=N/S(=O)(=O)Cc2ccccc2)S/C1=C/c1ccc2c(c1)OCO2`: 51 µg/mL (≈ 127 µM). `Cc1ccc(SCCNCc2ccco2)cc1.Cl` yielded a kinetic solubility of 27.9 µg/mL. The same measure for `CCOC(=O)c1cnc2cc(F)c(F)cc2c1N1CCOCC1`: 39.4 µg/mL (≈ 122 µM); for `O=C(COC(=O)/C=C/c1ccc([N+](=O)[O-])cc1)NC(=O)NC1CCCCC1`: 3.7 µg/mL (≈ 9.86 µM). The same measure for `CSc1nsc(SCC(=O)Nc2ccc(OC(C)=O)cc2)n1`: 2.8 µg/mL (≈ 7.88 µM). The compound `O=[N+]([O-])c1c(Nc2ccc(Br)cc2)ccc2nonc12` had a kinetic solubility below 0.2 µg/mL. The same measure for `O=C(CCNC(=O)c1ccccc1)Nc1ccc(S(=O)(=O)Nc2ncccn2)cc1`: above 63.8 µg/mL. The same measure for `Cc1ccc2c(Cl)cc(Cl)c(OCC(=O)NC(C)(C)C)c2n1`: 10 µg/mL (≈ 29.3 µM); for `Cc1ccc(CCC(=O)Nc2ccc(Cl)cc2)o1`: 23.9 µg/mL (≈ 90.6 µM). As for `CC1CCC2(CC1)NC(=O)N(CC(=O)Nc1cc(S(=O)(=O)N3CCCC3)ccc1Cl)C2=O` (stereo not given), the figure is 1.4 µg/mL (≈ 2.9 µM); as for `Cl.O=C(O)CC1(CC(=O)N2CCN(CCO)CC2)CCCC1`, above 50.2 µg/mL; as for `COc1ccc(C)cc1NC(=O)NCc1ccccc1F`, 2 µg/mL (≈ 6.94 µM). `CCC(C(=O)OC)n1cnc2scc(-c3ccc(C)cc3)c2c1=O` (stereo not given) returned a kinetic solubility of 29.3 µg/mL (≈ 85.6 µM).

`CC(OC(=O)c1cccs1)C(=O)NCCc1ccccc1` (stereo not given): the kinetic solubility was above 45.5 µg/mL. `O=C(Nc1ccccc1Cl)OC1CN2CCC1CC2` (stereo not given) displayed a solubility (kinetic) of 38.1 µg/mL (≈ 136 µM). As for `CCOCCn1c(=O)c2c(nc3n2CCCN3Cc2ccccc2)n(C)c1=O`, the figure is above 57.5 µg/mL. For `Cc1cccc(C)c1NC(=S)N1CCCCCC1`, the solubility (kinetic) was above 39.4 µg/mL. As for `Nc1ccc(SCC(=O)Nc2cccc([N+](=O)[O-])c2)cc1`, the figure is above 45.5 µg/mL; as for `COC(=O)c1cc(CSC(=N)N)ccc1OCCC(C)C.Cl`, above 52 µg/mL; as for `O=c1[nH]c2c(c(=O)[nH]1)CCC2`, above 22.8 µg/mL. As to `Cc1cc(Sc2ccc([N+](=O)[O-])cn2)ccc1Br`, the solubility (kinetic) was below 0.3 µg/mL. `CNc1nc(N)c([N+](=O)[O-])c(Nc2cccc(Cl)c2)n1` gave a kinetic solubility of 0.4 µg/mL (≈ 1.36 µM).

Take `Cc1cc(NC(=O)CSc2ncc(C(=O)O)n2-c2ccc(F)cc2)no1`: the solubility (kinetic) was 55.4 µg/mL (≈ 147 µM). As for `Cc1c(C)c(C)c2[nH]c(=S)[nH]c2c1C`, the figure is 0.4 µg/mL (≈ 1.94 µM); as for `CC(C)(C)CC(=O)NC(=S)NCc1ccccc1`, 1.7 µg/mL (≈ 6.43 µM); as for `CCCn1c(=S)[nH]c2ccc(C(F)(F)F)cc21`, 20.7 µg/mL (≈ 79.5 µM). As for `O=C(COc1ccc(S(=O)(=O)N2CCCCC2)cc1)N1CCCC1`, the figure is above 52.9 µg/mL. `CCOC(=O)c1ccoc1CN1CCN(S(=O)(=O)c2ccc(C)c(C)c2)CC1` showed a solubility (kinetic) of 32.8 µg/mL (≈ 80.7 µM). Compound `Cc1ccc(C(=O)c2cc(Br)ccc2N)cc1` displayed a solubility (kinetic) of 2.9 µg/mL (≈ 9.99 µM). Regarding `O=C(N[C@@H](Cc1ccccc1)C(=O)OCc1ccccc1)c1ccco1`, the kinetic solubility worked out at 32.4 µg/mL (≈ 92.7 µM). As for `COc1cccc(C(=O)Nc2cc3c4c(c2)CC(=O)N4CCC3)c1`, the figure is above 48.4 µg/mL; as for `O=C1CN(C(=S)Nc2ccc(OC(F)F)cc2)CCN1`, above 45.2 µg/mL. The same measure for `NC(=O)COC(=O)c1cccc(S(=O)(=O)N2CCCCC2)c1`: above 49 µg/mL; for `CCC(C(=O)Nc1ccc(C)cc1)c1ccccc1` (stereo not given): below 0.5 µg/mL; for `O/N=C/c1ccc2cccc(O)c2n1`: 26.3 µg/mL (≈ 140 µM).

`COc1ccc(NC(=S)NCc2ccccn2)cc1OC`: the solubility (kinetic) is above 45.5 µg/mL. Consider `CCc1ccc(NC(=S)NCc2cccnc2)cc1`, for which the solubility (kinetic) was determined as 36.9 µg/mL (≈ 136 µM).

In turn, `N#CC(C#N)=C1NC(N)=C(C#N)C(c2ccccc2)=C1C#N` came in with a solubility (kinetic) above 42.6 µg/mL. Regarding `CNC(=S)Nc1ccc([N+](=O)[O-])cc1`, the kinetic solubility is above 31.7 µg/mL. In turn, `CCOC(=O)c1ccccc1NC(=O)Cc1ccc(OC)c(S(=O)(=O)N2CCOCC2)c1` displayed a solubility (kinetic) of 60.4 µg/mL (≈ 131 µM). `CC(C)(C)NC(=S)NC1CC1`: the kinetic solubility is 25.8 µg/mL (≈ 150 µM). On to `COC(=O)c1cc(OC)c(OC)cc1NC(=O)c1csc(C)c1`, for which the solubility (kinetic) was below 0.7 µg/mL. The same measure for `COc1ccc(CN2CC[C@@H](N3CCOCC3)[C@H](O)C2)cc1F`: 43.3 µg/mL (≈ 133 µM). Compound `CCOc1ccc(-c2nc(N)ncc2-c2ccc(Cl)cc2)c(O)c1` came in with a solubility (kinetic) of 0.9 µg/mL (≈ 2.63 µM). The same measure for `CSc1ccc(Cl)c(C(=O)Nc2ccc(C)cn2)c1`: 4.8 µg/mL (≈ 16.4 µM); for `CC(C)c1nc2sc3c(SCC(N)=O)ncnc3c2c2c1CCC2`: 0.5 µg/mL (≈ 1.39 µM); for `CCC(CO)NCC(O)COCc1ccc2c(c1)OCO2` (stereo not given): above 44.6 µg/mL. For the compound `O=C(NCC1CCCO1)c1cc2ccccc2nc1Cl` (stereo not given), the solubility (kinetic) was above 43.6 µg/mL. As for `O=S(=O)(NCc1cccs1)c1ccccc1Cl`, the figure is above 43.2 µg/mL. The same measure for `O=C(NS(=O)(=O)c1ccc(Cl)s1)c1ccccc1`: above 45.3 µg/mL.

As to `O=S(=O)(c1ccccc1F)N1CCc2ccccc2C1`, the solubility (kinetic) was below 0.6 µg/mL. The same measure for `Cc1cc(N2CCCCC2)nc2c(C)cccc12`: below 0.3 µg/mL; for `COc1ccc(C(=O)CCC(=O)Nc2cccnc2)cc1OC`: above 47.2 µg/mL. On to `O=C(Cc1ccc(F)cc1)OCN1C(=O)c2ccccc2C1=O`, for which the solubility (kinetic) was 39.8 µg/mL (≈ 127 µM). As to `O=C(COC(=O)/C=C/c1cccs1)Nc1ccc(Cl)cc1F`, the solubility (kinetic) is 3.7 µg/mL (≈ 10.9 µM). As for `Cc1ccccc1CSCC(=O)NCCSc1ccccn1`, the figure is 49.1 µg/mL (≈ 148 µM); as for `COC(=O)c1sccc1NC(=O)CNC(=O)c1ccccc1`, above 47.8 µg/mL. Compound `CCOc1c(Nc2ccccc2O)c(=O)c1=O` returned a kinetic solubility above 35 µg/mL. Regarding `Cc1cc(C)cc(NC(=O)CN2CCN(c3ccccc3)CC2)c1`, the solubility (kinetic) stood at 1.8 µg/mL (≈ 5.57 µM). The same measure for `Cc1nc(N)nc(N)c1CCCc1ccc(Cl)c(Cl)c1`: above 46.7 µg/mL; for `Cc1cc2c(Nc3ccc(O)cc3)ncnc2s1.Cl`: above 44.1 µg/mL; for `O=C(O)c1cc(-c2ccccc2)nc(-c2ccccc2)c1`: above 41.3 µg/mL. The same measure for `CCCCNC(=O)CCc1nc2cccnc2n1Cc1ccccc1`: above 50.5 µg/mL; for `CN(CCC#N)C(=O)CC1(Cc2ccccc2)CCOC(C)(C)C1` (stereo not given): above 49.3 µg/mL. In the case of `COc1ccc(CN(C)C(=O)c2ccc3c(=O)n4c(nc3c2)CCC4)cc1`, the solubility (kinetic) is above 54.5 µg/mL. Compound `CC(C)CC(=O)Nc1cc2c3c(c1)C(C)C(=O)N3CCC2` (stereo not given) gave a kinetic solubility above 43 µg/mL. `O=C1NC(=Nc2cccc([N+](=O)[O-])c2)SC1(CO)CO`: the kinetic solubility was determined as 41.2 µg/mL (≈ 139 µM). In turn, `O=C(COC(=O)c1c[nH]c2ccccc12)NC1CCCCC1` showed a solubility (kinetic) of 13.4 µg/mL (≈ 44.6 µM). As for `COc1cccc(NC(=O)c2ccc3nc(C)sc3c2)c1`, the figure is 38.7 µg/mL (≈ 130 µM); as for `Cc1cc(C)nc(SCc2ccc(Br)cc2)n1`, 1.5 µg/mL (≈ 4.85 µM). As for `CCOc1nc(C)cc(COC)c1C(N)=O`, the figure is above 33.6 µg/mL; as for `OCC1CCCCN1C(=S)Nc1ccc(Cl)cc1Cl` (stereo not given), above 47.9 µg/mL. As for `O=C(O)c1cc(-c2ccc(Cl)s2)nc2ccccc12`, the figure is 41.5 µg/mL (≈ 143 µM); as for `CCOc1ccccc1Nc1ccc(C(=O)O)cc1N`, 37.6 µg/mL (≈ 138 µM). The compound `O=C1Nc2ccc(S(=O)(=O)N(CCO)CCO)c3cccc1c23` had a kinetic solubility above 50.5 µg/mL. `C=CCN(CC(=O)Nc1cccnc1)S(=O)(=O)c1ccc(Cl)cc1`: the kinetic solubility is above 54.9 µg/mL.

These data come from PubChem BioAssay AID1996.
